Laboratory results from ChEMBL document CHEMBL1137771, “Non-nucleoside inhibitors of HCV polymerase NS5B. Part 2: Synthesis and structure-activity relationships of benzothiazine-substituted quinolinediones” (Bioorg Med Chem Lett, 2009).

Assays:
[1] = system: Hepatitis C virus; assay: Antiviral activity against HCV genotype 1b isolate con1 infected in human 2209-23 cells assessed as inhibition of [3H]thymidine incorporation into DNA by scintillation proximity assay in presence of 5% fetal bovine serum; format: functional, organism-based, Hepacivirus hominis; settings: isolate Con1, 2209-23
[2] = Cytotoxicity against human 2209-23 cells by WST1 assay; format: cell-based
[3] = system: Hepatitis C virus; assay: Inhibition of HCV genotype 1b isolate con1 NS5B polymerase assessed as incorporation of radiolabeled nucleotide into RNA product; design: species or system Hepacivirus hominis
[4] = system: Hepatitis C virus; assay: Antiviral activity against HCV genotype 1b isolate con1 infected in human 2209-23 cells assessed as inhibition of [3H]thymidine incorporation into DNA by scintillation proximity assay in presence of 40% human serum albumin; format: functional, organism-based, Hepacivirus hominis; settings: isolate Con1, 2209-23
[5] = system: Hepatitis C virus; assay: Ratio of EC50 for HCV genotype 1b isolate con1 in presence of human serum albumin to EC50 for HCV genotype 1b isolate con1 in presence of fetal bovine serum; format: functional, Hepacivirus hominis

Row | EC50 [1] [nM] | IC50 [3] [nM] | EC50 [4] [nM] | Compound | CC50 [2] [nM] | fold change (FC) [5]
1 | 42 | 2 | 542 | CS(=O)(=O)Nc1ccc2c(c1)S(=O)(=O)C=C(c1c(O)c3ccccc3n(Cc3ccc(F)cc3)c1=O)N2 | > 50000 | 13
2 | 74 | 10 | 898 | CS(=O)(=O)Nc1ccc2c(c1)S(=O)(=O)C=C(c1c(O)c3ccc(F)cc3n(Cc3ccc(F)cc3)c1=O)N2 | > 50000 | 12.1
3 | 48 | 12 | 593 | CS(=O)(=O)Nc1ccc2c(c1)S(=O)(=O)C=C(c1c(O)c3c(Cl)cccc3n(Cc3ccc(F)cc3)c1=O)N2 | > 50000 | 12.3
